Assay results from paper PMC4553520, “Laboratory and Simulated Field Bioassays to Evaluate Larvicidal Activity of Pinus densiflora Hydrodistillate, Its Constituents and Structurally Related Compounds against Aedes albopictus, Aedes aegypti and Culex pipiens pallens in Relation to Their Inhibitory Effects on Acetylcholinesterase Activity” (Insects, 2013).
Converted amounts (≈) assume the structure as drawn.

Key:
[1] = tested on: early third-instar larvae of Ae. albopictus; experiment: Direct-contact mortality bioassay, Ae. albopictus larvae; conditions: for LC50 (Ae. albopictus), mg/L (95% CL): early third-instar larvae, 24 h exposure, direct contact; for LC50: Aedes albopictus, 24 h, read-out: LC50 (Ae. albopictus), mg/L (95% CL)
Description: (§1) Direct-contact mortality bioassays were employed to evaluate the toxicity of all compounds, using early third-instar larvae of each mosquito species. Each compound was dissolved in methanol, and then further diluted in distilled water containing Triton X-100 (20 µL/L). Groups of 20 mosquito larvae of each species were put into separate paper cups (270 mL), each containing different compound solutions (250 mL). The toxicity of each compound was determined by repeating this experimental procedure with different concentrations, ranging from 5 to 200 mg/L. Temephos and fenthion served as standard references and were similarly formulated as well. Controls contained only methanol-Triton X-100 carrier solution in distilled water.
(§2) Both treated and control larvae were kept under the same conditions as those used for colony maintenance. […] Due to certain constraints arising from the number of available larvae, all necessary bioassays could not be conducted simultaneously and thus, treatments were conducted over a period of time, with a separate control treatment included each time. Freshly prepared compound solutions were used for each round of bioassays. All bioassays were repeated three times.
(§3) Concentration-mortality data were subjected to probit analysis using SAS [20]. […] Furthermore, for the compounds tested in AChE inhibition assays, a correlation analysis between their LC50 values and IC50 values was conducted using SAS [20].

[2] = tested on: early third-instar larvae of Ae. aegypti; experiment: Direct-contact mortality bioassay, Ae. aegypti larvae; conditions: for LC50 (Ae. aegypti), mg/L (95% CL): early third-instar larvae, 24 h exposure, direct contact; for LC50: Aedes aegypti, 24 h, read-out: LC50 (Ae. aegypti), mg/L (95% CL)
Description: as §1, §2, §3

[3] = tested on: early third-instar larvae of Cx. p. pallens; experiment: Direct-contact mortality bioassay, laboratory-reared Cx. p. pallens larvae; conditions: for LC50 (Cx p. pallens), mg/L (95% CL): laboratory-reared early third-instar larvae, 24 h exposure, direct contact; for LC50: Culex pipiens, 24 h, read-out: LC50 (Cx p. pallens), mg/L (95% CL)
Description: as §1, §2, §3

[4] = tested on: field-collected larvae of Cx. p. pallens; experiment: Semi-field bioassay, field-collected Cx. p. pallens larvae; conditions: for LC50: Culex pipiens, 24 h, read-out: LC50, mg/L, Field-collected; for Resistance ratio: field-collected vs laboratory-reared Cx. p. pallens larvae (LC50 ratio)
Description: Larvae of wild mosquitoes were field-collected from irrigated rice fields in Yongin, Korea in early August 2012. A satellite view of the larvae collection site is included in Figure 1 [13].
The buckets were treated with test compounds and covered with nylon mesh screen to prevent other mosquitoes and insects from laying eggs. The buckets were then placed back at the initial collection site and were allowed to stand for 24 h, after which the mortality data were recorded. Temephos and fenthion served as standard references.
as §3

Row | Compound | LC50 (Ae. albopictus), mg/L (95% CL) [1] | LC50 (Ae. aegypti), mg/L (95% CL) [2] | LC50 (Cx p. pallens), mg/L (95% CL) [3] | LC50 [1] [mg/L] | LC50 [4] [mg/L] | Resistance ratio [4] | LC50 [2] [mg/L] | LC50 [3] [mg/L]
1 | CC1=C[C@H](O)[C@H]2C[C@@H]1C2(C)C (relative stereo) [(S)-cis-verbenol] | 136.86 (121.92–161.87) mg/L | >150 mg/L | 140.41 (124.89–167.57) mg/L |  |  |  |  | 
2 | CC1(C)[C@@H]2CC[C@H](CO)[C@H]1C2 (relative stereo) [(−)-cis-myrtanol] | >150 mg/L | >150 mg/L | >150 mg/L |  |  |  |  | 
3 | CC(C)=CCCC(C)CC=O (single isomer, unassigned; (+)) [(+)-citronellal] | 46.39 (41.08–52.95) mg/L | 48.23 (42.42–55.64) mg/L | 49.47 (43.52–57.04) mg/L |  |  |  |  | 
4 | C=C(C)C1CC=C(C)CC1 (single isomer, unassigned; (+)) [(+)-limonene] |  |  |  | 10.8 (≈ 79.1 µM) | 10.5 (≈ 77.4 µM) | 0.98 | 15.3 (≈ 112 µM) | 10.8 (≈ 79 µM)
5 | CC1=CCC(O)(C(C)C)CC1 (single isomer, unassigned; (+)) [(+)-terpinen-4-ol] | 98.28 (91.85–105.07) mg/L | 78.73 (71.24–85.73) mg/L | 86.25 (78.22–95.55) mg/L |  |  |  |  | 
6 | CC1(C)C2CC=C(CO)C1C2 (single isomer, unassigned; (-)) [(−)-myrtenol] | >150 mg/L | >150 mg/L | >150 mg/L |  |  |  |  | 
7 | CC12CCC(CC1)C(C)(C)O2 [1,8-cineole] |  |  |  | 73.5 (≈ 476 µM) |  |  | 73.3 (≈ 475 µM) | 72.9 (≈ 472 µM)
8 | CC1=CC[C@@H]2C[C@H]1C2(C)C [(1R)-(+)-α-pinene] |  |  |  | 55.6 (≈ 408 µM) |  |  | 51.3 (≈ 376 µM) | 60.8 (≈ 447 µM)
9 | CC1=CC[C@H]2C[C@@H]1C2(C)C [(1S)-(−)-α-pinene] |  |  |  | 28.6 (≈ 210 µM) |  |  | 40 (≈ 293 µM) | 32 (≈ 235 µM)
10 | CC(C)=CCCC(C)CCO (stereo not drawn) [(+)-β-citronellol] | 90.89 (83.26–99.00) mg/L | 93.46 (85.80–101.82) mg/L | 87.81 (80.62–95.50) mg/L |  |  |  |  | 
11 | C=C(C)[C@H]1CC=C(C)C(=O)C1 [(S)-(+)-carvone] | 43.83 (41.78–45.91) mg/L | 42.14 (39.62–44.62) mg/L | 46.19 (43.54–49.12) mg/L |  |  |  |  | 
12 | CC(C)=CCC[C@H](C)CC=O [(−)-citronellal] |  |  |  | 41.1 (≈ 266 µM) |  |  | 37.5 (≈ 243 µM) | 41.9 (≈ 272 µM)
13 | CC1=CC(=O)[C@H]2C[C@@H]1C2(C)C [(−)-verbenone] |  |  |  | 89.4 (≈ 595 µM) |  |  | 96.8 (≈ 644 µM) | 89.1 (≈ 593 µM)
14 | CC(C)=CCCC(C)CCO (stereo not drawn) [(−)-β-citronellol] | 71.99 (64.67–80.37) mg/L | 75.31 (68.31–83.22) mg/L | 66.26 (59.63–73.33) mg/L |  |  |  |  | 
15 | C=C1CC[C@@H]2[C@H]([C@@H]3[C@H](C)CC[C@@H]13)C2(C)C [Aromadendrene] | 129.21 (118.02–145.97) mg/L | >150 mg/L | 147.91 (127.93–188.26) mg/L |  |  |  |  | 
16 | CC1(C)C2CCC1(C)C(O)C2 (stereo not drawn) [Borneol] |  |  |  | > 150 |  |  | > 150 | > 150
17 | CC(=O)OC1CC2CCC1(C)C2(C)C (stereo not drawn) [Bornyl acetate] |  |  |  | > 150 |  |  | > 150 | > 150
18 | C=C1C2CCC(C2)C1(C)C (stereo not drawn) [Camphene] |  |  |  | 79.1 (≈ 581 µM) |  |  | 72.9 (≈ 535 µM) | 80.1 (≈ 588 µM)
19 | CC12CCC(CC1=O)C2(C)C (stereo not drawn) [Camphor] |  |  |  | > 150 |  |  | > 150 | > 150
20 | Cc1ccc(C(C)C)cc1O [Carvacrol] |  |  |  | 95 (≈ 633 µM) |  |  | 101 (≈ 673 µM) | 91.9 (≈ 612 µM)

Row | Compound | LC50 (Ae. albopictus), mg/L (95% CL) [1] | LC50 (Ae. aegypti), mg/L (95% CL) [2] | LC50 (Cx p. pallens), mg/L (95% CL) [3] | LC50 [1] [mg/L] | LC50 [4] [mg/L] | Resistance ratio [4] | LC50 [2] [mg/L] | LC50 [3] [mg/L]
21 | C=C(C)C1CC=C(C)[C@@H](O)C1 (stereo partly drawn) [Carveol] |  |  |  | 121 (≈ 796 µM) |  |  | 124 (≈ 814 µM) | 114 (≈ 746 µM)
22 | C=C1CC[C@H]2O[C@]2(C)CC[C@@H]2[C@@H]1CC2(C)C [Caryophyllene oxide] | 107.62 (99.82–116.81) mg/L | 113.00 (104.54–123.59) mg/L | 126.28 (110.92–158.13) mg/L |  |  |  |  | 
23 | COP(=S)(OC)Oc1ccc(SC)c(C)c1 [Fenthion, reference compound] |  |  |  | 0.012 (≈ 0.0431 µM) | 3.12 (≈ 11.2 µM) | 115.56 | 0.022 (≈ 0.079 µM) | 0.027 (≈ 0.097 µM)
24 | CC(C)=CCC/C(C)=C/CO [Geraniol] |  |  |  | 68.2 (≈ 442 µM) |  |  | 73.4 (≈ 476 µM) | 57 (≈ 369 µM)
25 | CC(=O)OC/C=C(\C)CCC=C(C)C [Geranyl acetate] |  |  |  | 33 |  |  | 21.4 | 30.3
26 | C=CC(C)(O)CCC=C(C)C (stereo not drawn) [Linalool] |  |  |  | 129 (≈ 837 µM) |  |  | 113 (≈ 736 µM) | 144 (≈ 935 µM)
27 | C=CC(C)(CCC=C(C)C)OC(C)=O (stereo not drawn) [Linanyl acetate] |  |  |  | 98.1 |  |  | 97.8 | 97
28 | CC1CCC(C(C)C)C(O)C1 (stereo not drawn) [Menthol] |  |  |  | 69.6 (≈ 445 µM) |  |  | 81.2 (≈ 520 µM) | 67.3 (≈ 430 µM)
29 | C=CC(=C)CCC=C(C)C [Myrcene, β-myrcene] |  |  |  | 36 (≈ 264 µM) |  |  | 39.5 (≈ 290 µM) | 41.3 (≈ 303 µM)
30 | CC(C)=CCC/C(C)=C\CO [Nerol] |  |  |  | 112 (≈ 723 µM) |  |  | 121 (≈ 783 µM) | 111 (≈ 723 µM)
31 | COP(=S)(OC)Oc1ccc(Sc2ccc(OP(=S)(OC)OC)cc2)cc1 [Temephos, reference compound] |  |  |  | 0.01 (≈ 0.0214 µM) | 1.68 (≈ 3.6 µM) | 129.23 | 0.015 (≈ 0.0322 µM) | 0.013 (≈ 0.0279 µM)
32 | CC(=O)OC(C)(C)C1CC=C(C)CC1 (stereo not drawn) [Terpinyl acetate] | 72.39 (65.05–80.55) mg/L | 96.32 (89.89–103.04) mg/L | 58.27 (52.60–64.82) mg/L |  |  |  |  | 
33 | Cc1cccc(C(C)C)c1 [m-cymene] |  |  |  | 62 (≈ 462 µM) |  |  | 69.7 (≈ 519 µM) | 59.4 (≈ 442 µM)
34 | Cc1ccccc1C(C)C [o-cymene] | 48.57 (42.14–55.77) mg/L | 39.60 (33.25–46.71) mg/L | 47.78 (40.96–55.39) mg/L |  |  |  |  | 
35 | Cc1ccc(C(C)C)cc1 [p-cymene] |  |  |  | 32.8 (≈ 245 µM) |  |  | 33.5 (≈ 249 µM) | 29.7 (≈ 221 µM)
36 | CC1=CC[C@H](C(C)C)C=C1 [α-phellandrene] |  |  |  | 16.9 (≈ 124 µM) |  |  | 19.4 (≈ 142 µM) | 14 (≈ 103 µM)
37 | CC1=CC=C(C(C)C)CC1 [α-terpinene] |  |  |  | 21.9 (≈ 161 µM) |  |  | 24.9 (≈ 182 µM) | 23.9 (≈ 175 µM)
38 | C=C1CC/C=C(\C)CC[C@@H]2[C@@H]1CC2(C)C [β-caryophyllene] |  |  |  | 39.5 (≈ 193 µM) |  |  | 38.6 (≈ 189 µM) | 47.8 (≈ 234 µM)
39 | CC1=CCC(C(C)C)=CC1 [γ-terpinene] |  |  |  | 16.2 (≈ 119 µM) |  |  | 20.5 (≈ 150 µM) | 17.8 (≈ 130 µM)
40 | (−)-terpinen-4-ol | 92.16 (84.28–101.24) mg/L | 72.36 (66.33–78.22) mg/L | 85.66 (75.71–97.28) mg/L |  |  |  |  | 
